{"source": "patent US7223365B2", "about": "“Device and method for detecting the coagulation functions of global, especially primary hemostasis” (priority 2000, dated 2007)", "test_system": "platelet function", "test": "examination of the coagulation function of the global, in particular the primary, hemostasis; volumetric flow regulated by pressure change in the reaction opening at constant shear rate", "assay_type": "cell-based", "conditions": "FIG. 29; volumetric flow regulated at specified constant shear rate", "source_text": "The sealing time and the sealing volume are measurement values for clinical analysis.", "data": [{"molecule": "CC(=O)Oc1ccccc1C(=O)O", "note": "[ASA, acetylsalicylic acid]", "values": [{"measurement": "deposition of platelets in the reaction opening", "result": "hardly any deposition of platelets"}, {"measurement": "measurement limits (sealing time / sealing volume)", "result": "not reached"}]}]}
